pIC50: −log10 of the molar value.
Key:
Leishmania donovani [1] = experiment: (§1) GSK_TCAKS: pIC50 Leishmania donovani Imaging: Amastigotes/Macrophages. Assay plates (384-well) were prepared by adding 250nL of compound to each well. For single shot assay, the final compound concentration was 5 uM. […] Automated image analysis was performed with a script developed on Acapella High Content Imaging and Analysis Software (PerkinElmer). Output: Average number of amastigotes per macrophage cell were reported for each well.; type: functional, organism-based, Homo sapiens; details: THP-1
[2] = GSK_TCAKS: pIC50 HepG2 human cell line viability assay using luminiscence. […] Seeding density was checked to ensure that new mono-layers were not more than 50% confluent at the time of harvesting. Cell suspension was added to 500 mL of the same medium at a final density of 1.2 * 10^5 cells/mL. This cell suspension was dispensed (25 uL, 3000 cells per well) into 384-well clear-bottom plates using a Multidrop Combi dispenser. Prior to addition of the cell suspension, the screening compounds (250 nL) were pre-dispensed into the plates with an Echo liquid handler. Plates were incubated for 48 h at 37C, 5% CO2. After incubation, plates equilibrated at room temperature for 30 min before proceeding to develop the luminescent signal. The signal developer, CellTiter-Glo Reagent, was allowed to equilibrate at room temperature for 30 min and added to the plates (25uL per well) using a Multidrop Combi dispenser. Plates were left for 10 min at room temperature for stabilization and then read using a ViewLux.; type: toxicity, cell-based
Trypanosoma cruzi [3] = experiment: (§2) GSK_TCAKS: pIC50 Trypanosoma cruzi Imaging: Infected Cells. […] Cells were then washed once with PBS before infection. T. cruzi trypomastigotes, collected at days 5 to 8 after infection from LLC-MK2 parasite infected cultures, were allowed to swim out for 4h at 37C from a centrifuged pellet (2,500 rpm/10 min/room temperature). Trypomastigotes were then collected and counted in a CASY Cell Counter. Trypomastigotes, in supplemented DMEM, were added to H9c2 cultures in a multiplicity of infection of 1 and incubated for 18 h. Cells were washed once with PBS before incubation of the infected H9c2 monolayer with trypsin (Life-Technologies) to detach cells from the flask. Cells were counted in a CASY Cell Counter using a 150 um capillary and their density set at 5 * 10^4 cells per mL in supplemented assay DMEM. Infected H9c2 were dispensed into 384-well poly-lysine coated assay plates at 50uL per well using a Multidrop Combi dispenser. After seeding them, the plates were incubated at 37C, 5% CO2 for 72h. Cultures were then fixed and stained by addition of 50 uL of a solution containing 8% formaldehyde and 4 uM DRAQ5 DNA dye (BioStatus, UK) per well. […] Five images were collected per well for reliable statistical analysis. Automated image analysis was performed with a script developed on Acapella High Content Imaging and Analysis Software (PerkinElmer). Output: percentage of infected cells per well as a second infection marker.; type: functional, organism-based, Rattus norvegicus; details: H9c2, 4 h
[4] = tested on: Trypanosoma brucei brucei; experiment: GSK_TCAKS: pIC50 Trypanosoma brucei viability assay using fluorescence intensity. Assay plates (1536-well) were prepared by dispensing 25nL of compound solution per well using an Echo acoustic dispenser (Labcyte).; type: functional, organism-based; details: Lister 427, 2 h
Trypanosoma cruzi [5] = experiment: GSK_TCAKS: pIC50 Trypanosoma cruzi Imaging: Amastigotes/Cell. […] Cells were then washed once with PBS before infection. T. cruzi trypomastigotes, collected at days 5 to 8 after infection from LLC-MK2 parasite infected cultures, were allowed to swim out for 4h at 37C from a centrifuged pellet (2,500 rpm/10 min/room temperature). Trypomastigotes were then collected and counted in a CASY Cell Counter. Trypomastigotes, in supplemented DMEM, were added to H9c2 cultures in a multiplicity of infection of 1 and incubated for 18 h. Cells were washed once with PBS before incubation of the infected H9c2 monolayer with trypsin (Life-Technologies) to detach cells from the flask. Cells were counted in a CASY Cell Counter using a 150 um capillary and their density set at 5 * 10^4 cells per mL in supplemented assay DMEM. Infected H9c2 were dispensed into 384-well poly-lysine coated assay plates at 50uL per well using a Multidrop Combi dispenser. After seeding them, the plates were incubated at 37C, 5% CO2 for 72h. Cultures were then fixed and stained by addition of 50 uL of a solution containing 8% formaldehyde and 4 uM DRAQ5 DNA dye (BioStatus, UK) per well. […] Five images were collected per well for reliable statistical analysis. Automated image analysis was performed with a script developed on Acapella High Content Imaging and Analysis Software (PerkinElmer). Output: number of amastigotes per cell as infection level measurement.; type: functional, organism-based, Rattus norvegicus; details: H9c2, 4 h
[6] = tested on: Trypanosoma brucei brucei; experiment: GSK_TCAKS: pIC50 Trypanosoma brucei viability assay using luminiscence. Assay plates (1536-well) were prepared. T. brucei cultures were harvested and counted in a CASY cell counter. A parasite suspension was prepared at a final concentration of 5 * 10^4 cells/mL in complete HMI9 medium and 6uL was dispensed to all wells containing compounds using a Multidrop Combi dispenser. 6uL of HMI9 media with 0.4% DMSO were dispensed to control columns. Plates were incubated for 24 h at 37C, 5% CO2 then tempered for 10 min at room temperature. ATP content was quantified by adding 4 uL of CellTiter-Glo Reagent (Promega) according to the manufacturer's instructions. Luminescence was measured using a ViewLux.; type: functional, organism-based; details: Lister 427, CASY
Trypanosoma cruzi [7] = experiment: GSK_TCAKS: pIC50 Trypanosoma cruzi viability assay using beta-GAL activity. This assay was run at single shot at 5uM compound concentration per well. The biological reagents consisted of NIH-3T3 host cells and trypomastigotes parasitic cells; both cell types were set to a 3.3 * 10^5 cells/mL dilution in assay DMEM by means of a CASY cell counter device using a 60um capillary. 6 uL of the mixture were dispensed per well (about 1 * 10^3 host-cells and 1 * 10^3 parasites) with a Multidrop Combi dispenser. […] In all wells, the percentage of DMSO never exceeded 0.5%. Plates incubated for four days at 37C, 5% CO2. The substrate used for the assay fluorescence intensity (FLINT) readout was resorufin-beta-D-galactopiranoside (Sigma-Aldrich) at 5uM per well. It was diluted in PBS supplemented with the soft detergent Igepal (Fluka).; type: functional, organism-based, Mus musculus; details: Tulahuen, NIH3T3
Trypanosoma cruzi [8] = experiment: as §2, with “H2C9” for “Trypanosoma cruzi”, “H9c2 Host Cardiomyocytes.” for “Infected Cells.”, “Number” for “percentage”, “H9c2 Host Cardiomyocytes nuclei to determine drug-related cytotoxicity.” for “infected cells per well as a second infection marker.”; type: functional, organism-based, Rattus norvegicus; details: H9c2, 4 h
[9] = molecular target: Sterol 14-alpha demethylase (Trypanosoma cruzi (strain CL Brener), UniProt Q7Z1V1); experiment: GSK_TCAKS: pIC50 CYP51 from Trypanosoma cruzi.; type: functional
Sequence of Sterol 14-alpha demethylase (Q7Z1V1 whole entry): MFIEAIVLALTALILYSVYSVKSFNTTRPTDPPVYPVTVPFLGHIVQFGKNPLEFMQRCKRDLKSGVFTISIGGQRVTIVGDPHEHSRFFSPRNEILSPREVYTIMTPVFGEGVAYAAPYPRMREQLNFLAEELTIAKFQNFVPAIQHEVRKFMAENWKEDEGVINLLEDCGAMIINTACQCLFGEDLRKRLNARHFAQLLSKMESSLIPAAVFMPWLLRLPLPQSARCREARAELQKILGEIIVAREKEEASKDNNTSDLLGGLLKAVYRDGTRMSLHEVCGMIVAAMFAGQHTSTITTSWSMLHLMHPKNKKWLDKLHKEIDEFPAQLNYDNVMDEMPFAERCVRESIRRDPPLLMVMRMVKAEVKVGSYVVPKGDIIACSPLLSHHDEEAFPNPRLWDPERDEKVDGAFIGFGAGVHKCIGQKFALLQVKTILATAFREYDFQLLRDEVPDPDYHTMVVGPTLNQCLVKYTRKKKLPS

Leishmania donovani [10] = experiment: as §1, with “THP-1 Host Macrophages.” for “Amastigotes/Macrophages.”, “THP-1” for “Average number of amastigotes per macrophage”, “cell count” for “cell”; type: functional, organism-based, Homo sapiens
Leishmania donovani [11] = experiment: GSK_TCAKS: pIC50 Leishmania donovani viability assay using fluorescence intensity. Assay plates (1536-well) were prepared by adding 30nL per well of compound. For single shot assay, the final compound concentration was 5uM. […] Briefly, eGFP LdBOB axenic amastigotes were harvested, fixed and counted in a CASY cell counter (Roche-Applied Science). A final concentration of 1.5 * 10^5 cells per well were prepared in amastigote media containing 500 U/mL penicillin/streptomycin (Invitrogen) and 6uL was dispensed to each experimental well using a Multidrop Combi dispenser (Thermo Scientific). 6uL of assay media was dispensed to control columns used as reference for 100% compound response. Following incubation for 72 h at 37C, 5% CO2, 2 uL of resazurin was added to each well at a final concentration of 0.5 mM in phosphate buffered saline (PBS) with IGEPAL (Sigma-Aldrich), 0.05% (v/v).; type: functional, organism-based
NIH3T3 = experiment: GSK_TCAKS: pIC50 NIH 3T3 cell line viability assay using luminiscence. Tissue culture surface treated assay plates (1536-well) were used. […] The 100% cells survival control was determined exposing the host-cells to a 0.5% DMSO concentration, whereas the 100% toxicity control was achieved by seeding the cells in presence of Amphotericin B at 50uM. Plates were incubated for four days at 37C, 5% CO2. The assay readout was developed by addition of 5uL of CellTiter-Glo Reagent following the manufacturer's instructions. Luminiscence was measured using a ViewLux.; type: functional, cell-based; details: Mus musculus, NIH3T3, 96 h
Leishmania donovani [12] = experiment: as §1, with “Infected Macrophages.” for “Amastigotes/Macrophages.”, “Percent” for “Average number”, “infected” for “amastigotes per”, “cells” for “cell”; type: functional, organism-based, Homo sapiens; details: THP-1

| Structure (SMILES) | pIC50 (Leishmania donovani [1]) | IC50 at 48 h [2] [µM] | pIC50 (Trypanosoma cruzi [3]) | pIC50 [4] | pIC50 (Trypanosoma cruzi [5]) | pIC50 [6] | pIC50 (Trypanosoma cruzi [7]) | pIC50 (Trypanosoma cruzi [8]) | pIC50 [9] | pIC50 (Leishmania donovani [10]) | pIC50 (Leishmania donovani [11]) | pIC50 (NIH3T3) | pIC50 (Leishmania donovani [12]) |
| --- | --- | --- | --- | --- | --- | --- | --- | --- | --- | --- | --- | --- | --- |
| COc1ccc(C(C)N(C)c2ncc3c(N)nc(N)nc3n2)cc1F (stereo not given) | 4.90 | > 100 | 6.70 | 4.90 | 7.20 | 5.30 | 7.10 | 4.60 | < 4.00 | < 4.30 | 5.40 | 4.40 | 4.80 |
| O=c1ccc2ccc(F)c3c2n1C[C@H]3CN1CCC(NCc2cc3ccccc3o2)CC1 | 4.90 | 39.8 | 6.70 | 6.20 | 6.90 | 5.70 | 6.40 | 4.50 | 4.50 | 4.50 | 4.80 | 4.70 | 4.70 |
| CS(=O)(=O)N[C@H]1CC[C@@H](Oc2cc3cnccc3cc2-c2ccsc2)CC1 | 4.70 | 63.1 | 6.80 | 4.80 | 7.00 | < 4.40 | 6.90 | < 4.30 | 7.60 | 4.80 | 4.50 | 4.80 | 4.30 |
| Cc1c(C(=O)NCCCCn2ccnc2)oc2c(C)cccc12 | < 4.30 | 79.4 | 6.30 | 4.70 | 6.30 | < 4.40 | 6.65 | < 4.30 | 7.00 | < 4.30 | < 4.30 | 4.50 | < 4.30 |
| Cc1ccc2ccc(C(Nc3ccccn3)c3cccnc3)c(O)c2n1 (stereo not given) | 5.10 | 20 | 6.70 | 5.30 | 6.70 | 5.40 | 6.30 | 4.50 | 7.30 | < 4.30 | 6.40 | 5.00 | 4.90 |

Source: ChEMBL document CHEMBL3430912, “GSK Tres Cantos Anti-Kinetoplastid Screening (TCAKS) Data”
